Measurements as given in paper PMC10938439, “C-3 Steroidal Hemiesters as Inhibitors of 17β-Hydroxysteroid Dehydrogenase Type 10” (ACS Omega, 2024).
pIC50: −log10 of the molar value. Values joined by “and” are separate entries in the source; they are usually repeats but may differ in a detail not shown here. Equal values may be shown once.

Experiments:
[1] = target: T1, 17β-HSD10 (Homo sapiens, UniProt Q99714); test: Inhibition of 17β-estradiol to estrone transformation by purified recombinant 17β-HSD10 (NADH fluorescence); format: biochemical; conditions: purified recombinant 17β-HSD10, 17β-estradiol as substrate; means ± SEM (n = 4)
T1 construct: inferred from Ni-NTA purification with imidazole elution; made in house; host or cells: E. coli BL21 (DE3)
T1 sequence (Q99714 1-261): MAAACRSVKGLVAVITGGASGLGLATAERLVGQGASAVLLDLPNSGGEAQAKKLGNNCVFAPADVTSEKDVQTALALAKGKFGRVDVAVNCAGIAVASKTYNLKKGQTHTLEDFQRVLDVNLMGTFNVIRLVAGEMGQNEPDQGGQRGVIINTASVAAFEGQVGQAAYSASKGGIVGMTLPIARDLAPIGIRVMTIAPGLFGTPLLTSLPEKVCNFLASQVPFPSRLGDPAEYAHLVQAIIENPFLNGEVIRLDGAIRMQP
Description: As standards, we used the known inhibitor AG18051 as the positive control and the published steroidal compounds,[18] namely, pregnenolone, testosterone, dihydrotestosterone, androsterone, epiandrosterone, and dehydroepiandrosterone.
17β-HSD10 was performed as described previously.[11] Briefly, the autoinduction and overexpression were performed at 25 °C for 18 h in the E. coli BL21 (DE3) strain. The bacterial pellet was resuspended in lysis buffer that consisted of sodium phosphate buffer ([…]), NaCl (150 mM), and imidazole (10 mM, pH 8.0) with 1 mg/mL lysozyme and benzonase (150 U/mL). cOmplete EDTA-free protease inhibitor cocktail was incubated for 20 min on ice and then sonicated (12 × 10 s pulses with 30 s pauses). The supernatant was applied to the Ni-NTA agarose resin after centrifugation (16 000g, 10 min, 4 °C). Then, the solution was incubated on ice for 1 h with gentle stirring.
The standard steroids were screened at 1 and 10 μM concentrations, and the tested compounds and standard AG18051 were screened at 10 μM concentration. For compounds with at least 50% inhibition of 17β-HSD10, the IC50 values were determined.
Steroid stock solutions (5 mM) were further diluted with DMSO to the working concentrations. DMSO was used as a vehicle control, and AG18051 was used as a control inhibitor. The enzyme activity was determined fluorometrically at 37 °C in the activity assay buffer [100 mM potassium phosphate buffer (pH 8.0)]. The general reaction mixture (200 μL per well) consisted of 17β-estradiol (25 μM, DMSO), NAD+ (500 μM, deionized water), recombinant 17β-HSD10 (45 nM), and different concentrations of inhibitor (2.2% (v/v) final concentration of DMSO as solvent). Before the addition of substrate, the reaction mixture of enzyme, cofactor, and inhibitor in the assay buffer was preincubated for 5 min at 37 °C. The increase of fluorescence (Ex/Em = 340/460 nm) due to the formation of NADH was monitored for 20 min (30 s intervals). For IC50 value determination, dose–response inhibition at 11 different concentrations of inhibitor (0.6–33.75 μM) was determined and the data were analyzed by GraphPad Prism 8.4.3 (GraphPad Software Inc.). All measurements were performed in a tetraplicate.

[2] = target: T1, 17β-HSD10; test: Inhibition of allopregnanolone to 5α-dihydroprogesterone transformation by recombinant 17β-HSD10; format: biochemical; conditions: 20 μM allopregnanolone as substrate; mean ± SEM (n = 4)
Description: Compound 23 (5 mM stock solution) was diluted with DMSO to the working concentrations. DMSO was used as vehicle control. The enzyme activity was determined as described in the previous section; the only difference was the replacement of 25 μM 17β-estradiol with 20 μM allopregnanolone as 17β-HSD10 substrate. For IC50 value determination, dose–response inhibition at 10 different concentrations of inhibitor (0.16–33.75 μM) was determined, and the data were analyzed by GraphPad Prism 8.4.3 (GraphPad Software Inc.). All measurements were performed in a tetraplicate.

[3] = tested on: Caco-2 cells; design: method as in PMID 30296546; conditions: cited from earlier work
[4] = design: method as in PMID 30296546; conditions: cited from earlier work
[5] = design: method as in PMID 30296546; conditions: cited from earlier work; remark: listed apart in the source

C[C@@]12CCC[C@H]1[C@@H]1CC=C3C[C@@H](OC(=O)CCCCC(=O)O)CC[C@]3(C)[C@H]1CC2 [Compound 23, Androst-5-en-3β-yl Hemiadipate]
pIC50 [1]: ~5.25 and 5.25 | pIC50 [2]: ~4.82 and 4.82 | Caco-2 cell permeability (50 μM) Papp [3]: 3.1 × 10^–6 cm/s | rat plasma stability, % remaining after 8 h [4]: 32% | human plasma stability, % remaining after 8 h [5]: 100%
